Data set [1] has as its system Mycobacterium tuberculosis. The data set can be described thus: Antimycobacterial activity against Mycobacterium tuberculosis H37Rv ATCC 27294 by microplate Alamar blue assay. The format is functional, organism-based. Background: The colour change of resazurin is a common sign of viable cells or microbes.
The nature of data set [2]: Selectivity index, Ratio of CC50 for african green monkey Vero cells to IC90 for Mycobacterium tuberculosis H37Rv ATCC 27294. The data set is classed as toxicity, cell-based.
Data set [3] is described as follows: Cytotoxicity against african green monkey Vero cells after 72 hrs by Cell titer Glo luminescent cell viability assay. The data set is classed as cell-based. Particulars: chlorocebus sabaeus. (In general: In ATP-based viability assays light output follows the ATP content of the culture.)

Molecules are shown by their SMILES.

The term IC90 denotes the concentration needed for an effect of 90%. One may read the CC50 as the concentration giving 50% cytotoxicity. For the compound `NNC(=O)c1ccncc1` [ISONIAZID], it took 0.21 µM to reach the 90% level in data set [1] (IC90). Moreover, in data set [2], the selectivity ratio is more than 20000. Besides, in data set [3], the cytotoxic concentration (CC50) at 72 h was more than 500 µM.

Broadly, the IC50 is the concentration that gives 50% inhibition. Consider `Cc1c(C(=O)NCc2ccccc2)[n+]([O-])c2cc(F)ccc2[n+]1[O-]`, for which, in data set [1], half-maximal inhibition (IC50) required 2.83 µM and the IC90 came out at 4.65 µM. Further, the selectivity ratio in data set [2] was more than 65.7. This compound returned a CC50 at 72 h in data set [3] of more than 306 µM.

In data set [1], `Cc1c(/C=N/NC(=O)c2ccncc2)[n+]([O-])c2cc(C(F)(F)F)ccc2[n+]1[O-]` registered an IC50 of 1.5 µM and an IC90 of 3.5 µM. For the same compound, in data set [2], the selectivity ratio worked out at 20. Further, half-maximal cytotoxicity in data set [3] (CC50 at 72 h) was put at 70 µM.

In data set [1], `Cc1c(C(=O)NCc2ccccc2)[n+]([O-])c2cc(Cl)ccc2[n+]1[O-]` displayed a 50% inhibitory concentration (IC50) of 1.1 µM and an IC90 of 1.25 µM. For the same compound, the selectivity ratio in data set [2] is more than 231. Besides, the CC50 at 72 h in data set [3] is more than 291 µM.

On to `Cc1c(/C=N/NC(=O)c2ccncc2)[n+]([O-])c2cc(F)ccc2[n+]1[O-]`, for which, in data set [1], the IC50 is less than 0.58 µM and the IC90 was 23.1 µM. In addition, the selectivity ratio in data set [2] turned out to be 3.31. This compound also returned a CC50 at 72 h in data set [3] of 76.5 µM.

`COc1ccc2c(c1)[n+]([O-])c(C(=O)NCc1ccccc1)c(C)[n+]2[O-]`: in data set [1], the IC50 was 18.9 µM and the IC90 turned out to be 36.4 µM.

Turning to `Cc1c(/C=N/NC(=O)c2ccncc2)[n+]([O-])c2cc(Cl)ccc2[n+]1[O-]`, in data set [1], the half-inhibitory concentration (IC50) is 1.04 µM and the IC90 came to 1.16 µM. Moreover, the selectivity ratio in data set [2] came out at 48.1. The compound further gave a CC50 at 72 h in data set [3] of 55.8 µM.

In data set [1], `COc1ccc2c(c1)[n+]([O-])c(/C=N/NC(=O)c1ccncc1)c(C)[n+]2[O-]` yielded an IC50 of less than 0.59 µM and a concentration for an effect of 90% (IC90) of 50.6 µM.

In data set [1], `Cc1c(C(=O)NCc2ccccc2)[n+]([O-])c2ccccc2[n+]1[O-]` displayed a half-maximal inhibitory concentration (IC50) of 4.91 µM and an IC90 of 8.42 µM. Further, in data set [2], the selectivity ratio was more than 38.4. In data set [3], this compound displayed a half-maximal cytotoxic concentration (CC50) at 72 h of more than 323 µM.

On to `Cc1c(/C=N/NC(=O)c2ccncc2)[n+]([O-])c2ccccc2[n+]1[O-]`, for which, in data set [1], the IC50 was 1.17 µM and the IC90 worked out at 1.32 µM. The selectivity ratio in data set [2] was more than 93. In addition, in data set [3], the CC50 at 72 h was more than 124 µM.

In data set [1], `Cc1cc2c(cc1C)[n+]([O-])c(/C=N/NC(=O)c1ccncc1)c(C)[n+]2[O-]` registered an IC50 of 1.22 µM and a concentration for an effect of 90% (IC90) of 2.57 µM. The selectivity ratio in data set [2] was more than 43.5. In data set [3], this compound showed a cytotoxic concentration (CC50) at 72 h of more than 124 µM.

As for `Cc1ccc2c(c1)[n+]([O-])c(C(=O)NCc1ccccc1)c(C)[n+]2[O-]`, in data set [1], the IC50 worked out at 8.35 µM and it took 13 µM to reach the 90% level (IC90). Moreover, in data set [2], the selectivity ratio was more than 23.8. In data set [3], this compound gave a CC50 at 72 h of more than 309 µM.

Turning to `Cc1c(C(=O)NCc2ccccc2)[n+]([O-])c2cc(C(F)(F)F)ccc2[n+]1[O-]`, in data set [1], the IC50 was less than 0.81 µM and the 90% effect concentration (IC90) was found to be 1.07 µM. Further, the selectivity ratio in data set [2] is more than 246. In addition, in data set [3], the CC50 at 72 h is more than 265 µM.

In data set [1], `Cc1cc2c(cc1C)[n+]([O-])c(C(=O)NCc1ccccc1)c(C)[n+]2[O-]` came in with a half-inhibitory concentration (IC50) of 90.8 µM and a concentration for an effect of 90% (IC90) of 296 µM.

In data set [1], `Cc1ccc2c(c1)[n+]([O-])c(/C=N/NC(=O)c1ccncc1)c(C)[n+]2[O-]` displayed an IC50 of 1.33 µM and an IC90 of 18.2 µM. The selectivity ratio in data set [2] was 2.86. In data set [3], this compound had a CC50 at 72 h of 52.1 µM.

Values taken from ChEMBL document CHEMBL1777812, “New 1,4-di-N-oxide-quinoxaline-2-ylmethylene isonicotinic acid hydrazide derivatives as anti-Mycobacterium tuberculosis agents” (Bioorg Med Chem Lett, 2011).
